In patent publication US5171271A, “Polypeptides with fibronectin activity” (Regents of the University of Minnesota, priority 1991, dated 1992):
Like-named read-outs stand apart in the source and are kept apart here.

How the values were obtained:
[1] = Solid phase heparin-binding assay on Immulon C plates
Protocol: Both peptides IIa and CS I were then compared for relative heparin-binding activity. Plastic Immulon C plates (Dynatech, Alexandria, Va.) were adsorbed with 100 μl in triplicate) of the indicated levels of peptides IIa, CS I or BSA as described. The ability of the 33 kD fragment to bind heparin was also determined, for comparison, although due to the relative size of this fragment compared with the peptides, different coating concentrations were used. The actual coating levels of the 33 kD fragment were 4, 20, 100 and 500 μg/ml. Following the blocking of nonspecific binding sites with BSA, the ability of these various substrata to bind ^3 H-heparin was determined by the addition of approximately 4,000 disintegrations per minute (dpm) of this ligand. All conditions of the assay were as described in U.S. patent application Ser. No. 89,073, the disclosure of which is incorporated by reference herein.
The three peptides derived from peptide Ila and intact peptide IIa, were adsorbed to Immulon C plates at the indicated concentrations (100 μl/ well) in triplicate and tested for the ability to bind ^3 H-heparin as described hereinabove. The results of this study are summarized on FIG. 5. […] Rather, a specific primary structure is crucial for this activity. […]

[2] = test system: CNS neurons from spinal cords of 6-day chick embryos; assay: Neurite outgrowth assay, CNS neurons; assay type: cell-based
Protocol: Peptides I, II, IIa, III, CSI or intact fibronectin were diluted in Voller's buffer (0.05M Carbonate buffer, pH 9.6) and 100 μl of each concentration was dipensed into 96 well tissue culture plates in triplicate. The plates were then placed in a sterile hood overnight to evaporate the buffer and to dry the peptides onto the plate. The following morning, 200 μl of phosphate-buffered saline (PBS) containing 5 mg/ml bovine serum albumin (PBS/BSA) were added to each well and the plates were incubated for an additional 3 hours. At that point, the PBS/BSA was aspirated and cells in the appropriate media were added to each well.
Embryonic CNS nerve cell cultures were prepared by the method of Rogers et al., Devel. Biol., 98, 212-220 (1983). Briefly, spinal cords from 6-day chick embryos were isolated and their dorsal halves removed and placed Ca^++ -Mg^++ free (CMF) Hank's balanced salt solution for 10 minutes at 37° C. Only the ventral portions, containing predominantly motor neurons, were prepazed for culture. The cords were then dissociated in 0.25% trypsin (Bactotrypsin, Difco) in CMF Hanks for 25 minutes at 37° C. […] The number of neurons with neurites was quantitated by randomly sampling 10 fields with the aid of a dissecting microscope. […]

[3] = test system: K1735M4 metastatic melanoma cells; details: for Tumor Cell Adhesion, Adherent Cells: melanoma cells, one hour
Protocol: The cells were cultured in Dulbecco's Modified Eagle's Medium containing 5% heat inactivated fetal calf serum. The cultures were grown in 37° C. incubators with a humidified atmosphere containing 5% CO2. Cells were subcultured twice weekly by releasing cells gently from the flask, using 0.05% trypsin and 1 mM EDTA.
The melanoma cells were pulsed in the same fashion as the endothelial cells described hereinabove, except that 2 μCi/ml ^3 HTd(tritiated thymidine) was added to each culture instead of amino acids. The labeled cells were harvested as described for the endothelial cells. The cell adhesion assay was identical to that described hereinabove for the bovine aortic endothelial cell assay.

[4] = Heparin-binding assay on nitrocellulose sheets
Protocol: The assay for heparin binding utilizes nitrocellulose sheets as substrata to bind peptides or proteins to be tested for heparin binding activity. Peptides I and II or intact fibronectin (fn) were solubilized in 50 mM (NH4)2 CO3 and diIuted to the concentrations indicated in FIGS. 2 and 3. Nitrocellulose sheets which had been presoaked in 50 mM NH4 CO3 were placed in a 96 well dot blot apparatus (Bethesda Research Laboratories Bethesda, Md.), and 250 μl of various concentrations of each peptide were aspirated through the wells. Each well was then washed three times with binding buffer (10 mM Tris-HCl, pH 8.0, 0.15 M NaCl), and the filters were removed and allowed to air dry overnight. The filters were then equilibriated for 5 minutes at room temperature in binding buffer which contained 10 mM CaCl2. ^3 H-heparin was then diluted to a concentration of 50,000 cpm/ml in binding buffer (with Ca^++), and nitrocellulose sheets were incubated in the presence of this mixture for 2 hours. The filters were then washed four times with binding buffer, and air dried. The individual spots of samples were cut out of the nitrocellulose and bound heparin was quantitated with a liquid scintillation counter.

[5] = test system: Bovine aortic endothelial cells; assay: Aortic endothelial cell adhesion assay; assay type: cell-based; details: coating concentration 5 μg/ml, 90 minutes
Protocol: Bovine aortic encothelial cells were isolated according to the following protocol. Aortas were obtained from a local slaughterhouse, washed in cold phosphate buffered saline (PBS) (136 mM NaCI, 2.6 mM KCl, 15.2 mM Na2 HPO4, pH 7.2) and processed within 2 hours. Crude collagenase (CLS III, 125-145 units per mg dry weight, Cooper Biomedical) was used at 2 mg/ml in Dulbecco's modified Eagle's medium (DMEM) (GIBCO). The vessel was clamped at the distal end, filled with the collagenase-PBS solution and digestion was carried out for 10 minutes. The lumenal contents were harvested, followed by the addition of fresh collagenase for two additional 10-minute periods. The enzyme-cell suspensions were added to an equal volume of DMEM containing 10% fetal bovine serum (FBS) to inhibit the enzyme and spun in a centrifuge at 400×g for 10 minutes. The resulting cell pellet was resuspended in DMEM containing 10% FBS, 100 units/ml of penicillin G, 100 μg/ml of streptomycin and 100 μg/ml of crude fibroblast growth factor. Cells are cultured in 75 cm^2 flasks in a humidified 5% CO2 atmosphere at 37° C. Cultures were fed twice a week with the same medium and cells were used in assays when approximately 75% confluent. […]
Adhesion was measured using 96 well microtiter plates adsorbed with fibronectin or peptides I and II. […] The solubilized cells were then quantitated using a liquid scintillation counter. […]

Row | Substance | 3H-heparin binding (in words) [1] | Promotion of neurite extension by CNS neurons (in words) [2] | Promotion of melanoma cell adhesion (in words) [3] | Melanoma Cell Adhesion, Percent Adhesion ([3]; concentration 80 μg/ml) | Melanoma Cell Adhesion, Percent Adhesion ([3]; concentration 400 μg/ml) | 3H-heparin binding (in words) [4] | Concentration at which maximum 3H-heparin binding was observed [4] | Adherent Cells [5] | Tumor Cell Adhesion, Adherent Cells ([3]; coating concentration 1 μg/ml) | Tumor Cell Adhesion, Adherent Cells ([3]; coating concentration 10 μg/ml) | Tumor Cell Adhesion, Adherent Cells ([3]; coating concentration 50 μg/ml) | Tumor Cell Adhesion, Adherent Cells ([3]; coating concentration 100 μg/ml)
1 | asp-glu-leu-pro-gln-leu-val-thr-leu-pro-his-pro-asn-leu-his-gly-pro-glu-ile-leu-asp-val-pro-ser-thr [Peptide CS I, reference compound] | failed to bind to heparin at any concentration that was tested | CNS neurons appeared to be preferably stimulated by peptide CS I | promoted the adhesion of melanoma cells in culture | 71.7% | 71.0% | – | – | – | – | – | – | –
2 | Fibronectin | – | – | – | – | – | bound ^3 H-heparin in a concentration dependent manner | 10^-6 M | 13,714 Counts Per Minute | 4700 Counts Per Minute | 7900 Counts Per Minute | 11,000 Counts Per Minute | 9700 Counts Per Minute
